29 molecules from PubChem BioAssay (NCI) can be followed below.

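Results reflect a 48-hour exposure of cells in 96-well plates to compound at five concentrations. GI50: concentration for 50% inhibition of growth. TGI is the concentration that stops growth completely.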 A value given as a limit tells only on which side of the number the result lay.

The first test has as its system HCC-2998 colon. The experiment in a line: NCI tumour cell line growth inhibition, 48 h.
The molecule `CN1C(=Nc2ccccc2)SC1=Nc1ccccc1` returned a TGI greater than 100 µM.

For `Oc1ccccc1/C=C/c1csnn1`, the TGI was greater than 100 µM.

With `CC(=O)CC(=O)OC1CC(C)CCC1C(C)C` (centres undefined), the TGI is greater than 100 µM.

`CP1(=O)CCCCC1`: the TGI was greater than 100 µM.

Molecule `Cc1ccc(S(=O)(=O)OC2CSS(=O)CC2OS(=O)(=O)c2ccc(C)cc2)cc1` (centres undefined) returned a TGI of 30.9 µM.

As to `COC(=O)/C(C)=C(/CCC1(C)OCCO1)O[Si](C)(C)C`, the TGI was greater than 100 µM.

In the case of `CCOC(=O)N1CCN(C=S)CC1`, the TGI was greater than 100 µM.

The molecule `CCc1cc(C(=O)OC)cn1C(=N)c1ccc(Cl)cc1` displayed a TGI greater than 100 µM.

As to `Cc1cc(=O)n(-c2ccccc2C)c(C)n1`, the TGI is greater than 100 µM.

`Oc1c(C(Nc2cccc3cccnc23)c2ccccc2)ccc2cccnc12` (centres undefined) displayed a TGI greater than 100 µM.

Molecule `COc1ccc(Br)c(N/N=C2\CCCNC2=O)c1` came in with a TGI greater than 100 µM.

Consider `COc1cc2c(c(OC)c1OC)-c1ccc(SC)c(=O)cc1C(CO)C2` (centres undefined), for which the GI50 was less than 0.01 µM.

`Cc1ccc2nc(NC(=O)C(=O)C(C#N)c3nc4ccccc4s3)sc2c1` (centres undefined) displayed a TGI greater than 100 µM.

The molecule `CC(C)C1CC[C@@H](C)C[C@@]1(O)CC(N)=O` (some centres undefined) displayed a TGI greater than 100 µM.

Turning to `COc1ccc(-c2c[nH]c(C(=O)O)c2-c2cc(OC)c(OC)c(OC)c2)cc1`, the GI50 was 7.53 µM and the TGI is greater than 100 µM.

As to `C=C(C)C(=O)O[C@H]1CC(=C)[C@@H]2C[C@H](O)[C@](O)(CCl)[C@@H]2[C@H]2OC(=O)C(=C)[C@@H]21`, the GI50 was 17.6 µM and the TGI was found to be 32.4 µM.

For `COc1cnc2c(c1)C(=O)c1c-2n(CCCn2ccnc2)c(=O)c2cc(F)ccc12`, the GI50 is 0.361 µM and the TGI is 79.5 µM.

As for `O=C([CH-]C(=O)c1ccccc1)c1ccccc1.O=C([CH-]C(=O)c1ccccc1)c1ccccc1.[La+3].[OH-].[OH3+]`, the GI50 is 16.1 µM and the TGI was 48.1 µM.

With `CCC[CH2][Sn]1([CH2]CCC)[O]C(=O)c2cccnc2[O]1`, the GI50 was 3.76 µM and the TGI came to 14.6 µM.

`COC1CC(OS(=O)(=O)c2ccc([N+](=O)[O-])cc2)C(OC(=O)c2ccccc2)C(C)O1` (centres undefined) came in with a TGI greater than 100 µM.

In the case of `CCOc1ccccc1N1C(=O)C(=O)C(c2nc3ccccc3o2)C(=O)C1=O`, the TGI was greater than 100 µM.

Turning to `C=C1C(=O)O[C@H]2[C@H]1CC/C(COC(=O)NCc1cn(C)c3ccccc13)=C\CC[C@@]1(C)O[C@@H]21`, the GI50 was 2.3 µM and the TGI is 5.33 µM.

Turning to `CCS(CC)(CC)CC1CCCC2=CCC(P(=O)(c3ccccc3)c3ccccc3)CC21` (centres undefined), the TGI was 22 µM.

Molecule `COc1ccc2n[se]nc2c1` returned a TGI greater than 100 µM.

Regarding `Cn1cc(C(=O)NCCC(=N)N)cc1NC(=O)C1=[N+](C)C=C(NC(=O)c2cccc(C(=O)NC3=CC(C(=O)Nc4cc(C(=O)NCCC(=N)N)cn4C)=[N+](C)C3)c2)C1`, the TGI is greater than 100 µM.

In the next test the test system is IGROV1 ovarian. The experiment in a line: NCI tumour cell line growth inhibition, 48 h.
Molecule `CCN(CC)c1c(C(=O)/C=C/c2ccc(OC)cc2)c(-c2ccccc2)nn(C)c1=O` displayed a TGI of 68.8 µM.

Molecule `CN1C(=Nc2ccccc2)SC1=Nc1ccccc1` showed a TGI greater than 100 µM.

For `Oc1ccccc1/C=C/c1csnn1`, the TGI was greater than 100 µM.

As to `CC(=O)CC(=O)OC1CC(C)CCC1C(C)C` (centres undefined), the TGI is greater than 100 µM.

The molecule `CP1(=O)CCCCC1` came in with a TGI greater than 100 µM.

As for `Cc1ccc(S(=O)(=O)OC2CSS(=O)CC2OS(=O)(=O)c2ccc(C)cc2)cc1` (centres undefined), the TGI is 32.9 µM.

Consider `COc1cc2c(cc1C)NC(=O)/C2=C/c1ccccn1`, for which the GI50 is 9.6 µM and the TGI is greater than 100 µM.

The molecule `O=[N+]([O-])c1cc(C(F)(F)F)cc([N+](=O)[O-])c1CCl` showed a TGI of 6.09 µM.

In turn, `Nc1ccnc(=O)[nH]1` came in with a TGI greater than 100 µM.

For `COC(=O)/C(C)=C(/CCC1(C)OCCO1)O[Si](C)(C)C`, the TGI was greater than 100 µM.

`CCOC(=O)N1CCN(C=S)CC1` registered a TGI greater than 100 µM.

For `CCc1cc(C(=O)OC)cn1C(=N)c1ccc(Cl)cc1`, the TGI is greater than 100 µM.

`Cc1cc(=O)n(-c2ccccc2C)c(C)n1`: the TGI was greater than 100 µM.

Regarding `Oc1c(C(Nc2cccc3cccnc23)c2ccccc2)ccc2cccnc12` (centres undefined), the TGI is 39.9 µM.

`COc1ccc(Br)c(N/N=C2\CCCNC2=O)c1` registered a TGI greater than 100 µM.

In the case of `COc1cc2c(c(OC)c1OC)-c1ccc(SC)c(=O)cc1C(CO)C2` (centres undefined), the GI50 was less than 0.01 µM and the TGI was greater than 100 µM.

Molecule `Cc1ccc2nc(NC(=O)C(=O)C(C#N)c3nc4ccccc4s3)sc2c1` (centres undefined) had a TGI of 51.8 µM.

For `CC(C)C1CC[C@@H](C)C[C@@]1(O)CC(N)=O` (some centres undefined), the TGI was greater than 100 µM.

Turning to `COc1ccc(-c2c[nH]c(C(=O)O)c2-c2cc(OC)c(OC)c(OC)c2)cc1`, the GI50 is 5.5 µM and the TGI is greater than 100 µM.

As for `C=C(C)C(=O)O[C@H]1CC(=C)[C@@H]2C[C@H](O)[C@](O)(CCl)[C@@H]2[C@H]2OC(=O)C(=C)[C@@H]21`, the GI50 was 2.71 µM and the TGI came out at 10.4 µM.

On to `O=C([CH-]C(=O)c1ccccc1)c1ccccc1.O=C([CH-]C(=O)c1ccccc1)c1ccccc1.[La+3].[OH-].[OH3+]`, for which the GI50 is 25.8 µM and the TGI was greater than 100 µM.

`CCC[CH2][Sn]1([CH2]CCC)[O]C(=O)c2cccnc2[O]1`: the GI50 was 4.57 µM and the TGI turned out to be 18.4 µM.

The molecule `COC1CC(OS(=O)(=O)c2ccc([N+](=O)[O-])cc2)C(OC(=O)c2ccccc2)C(C)O1` (centres undefined) came in with a TGI greater than 100 µM.

`CCOc1ccccc1N1C(=O)C(=O)C(c2nc3ccccc3o2)C(=O)C1=O` gave a TGI greater than 100 µM.

In the case of `C=C1C(=O)O[C@H]2[C@H]1CC/C(COC(=O)NCc1cn(C)c3ccccc13)=C\CC[C@@]1(C)O[C@@H]21`, the GI50 is 1.58 µM and the TGI was 3.31 µM.

With `CCS(CC)(CC)CC1CCCC2=CCC(P(=O)(c3ccccc3)c3ccccc3)CC21` (centres undefined), the TGI was determined as 28.1 µM.
